Data on one substance can be found in patent US5162304A, “Pharmaceutical compositions and methods for treatment and prophylaxis of cancer” (priority 1990, dated 1992).

The subject of assay [1] is Ehrlich's mouse ascites carcinoma cells. As to the kind of experiment: Test 7 and Comparing Tests 3 and 4: survival of mice inoculated with Ehrlich's mouse ascites carcinoma cells. The assay is classed as in vivo, male C57BL/6 mice. The settings on record: bleomycin alone; for Number of surviving mice: of 8. As for the experimental part:
5-week old male C57BL/6 mice were intraperitoneally inoculated with 10^6 Ehrlich's mouse ascites carcinoma cells. Since 24 hours later, a 50 μg/ml solution of bleomycin in 0.25% HCO-60 solution in physiological saline, and a suspension containing 50 μg/ml of bleomycin and 5 μg/ml of 14-methyl-1-pentadecanol were intraperitoneally injected at a dose of 10 mg/kg·day and 11 mg/kg·day, respectively, to each 8 animals/group for 5 days. The survival time of the injected mice was then followed.

For assay [2], the system named is human lung carcinoma A549 cells. As to the kind of experiment: Tests 4, 5 and Comparing Test 1: cytocidal activity of bleomycin alone or with isomonool, A549 cells. The assay is classed as cell-based. The protocol: (§1) The cytocidal activity (IC90) of bleomycin was evaluated when used alone or used in combination with 14-methyl-1-pentadecanol or 14-methyl-1-hexadecanol, using Ehrlich's mouse ascites carcinoma cells and human lung tumor A549 cells.

In assay [3] the test system is Ehrlich's mouse ascites carcinoma cells. As to the kind of experiment: Tests 4, 5 and Comparing Test 1: cytocidal activity of bleomycin alone or with isomonool, Ehrlich's cells. The assay is classed as cell-based. As for the experimental part:
as §1

The test system of assay [4] is Ehrlich's ascites cells. As to the kind of experiment: Test 6 and Comparing Test 2: uptake of bleomycin into Ehrlich's ascites cells. As to conditions: bleomycin alone. The assay is classed as cell-based, mouse.

Turning to bleomycin [reference compound], in assay [1] (i.p., 10 mg/kg.day for 5 days (Comparing test 3)), the “mean survival time after inoculation” value was found to be 33.3 days. Moreover, the “Number of surviving mice” value was 7 in assay [1] (day 14); 6 in assay [1] (day 15); 6 in assay [1] (day 16); 6 in assay [1] (day 17); 6 in assay [1] (day 18); 6 in assay [1] (day 19). The “Number of surviving mice” value in assay [1] (day 20) amounted to 6; in assay [1] (day 23), 4; in assay [1] (day 33), 3; in assay [1] (day 41), 2; in assay [1] (day 45) it was 2; in assay [1] (day 52), 2. Further, the “Number of surviving mice” value in assay [1] (day 57) and in assay [1] (day 60) was 1 in each case. For the same substance, the “Cytocidal activity (IC90) of bleomycin alone” value turned out to be 44 µg/mL in assay [2] and 20 µg/mL in assay [3]. Besides, the Bleomycin uptake in assay [4] (30 min) stood at 0.03 μg/mg Ehrlich's cell; in assay [4] (60 min) it was 0.06 μg/mg Ehrlich's cell; in assay [4] (120 min), 0.12 μg/mg Ehrlich's cell; in assay [4] (180 min), 0.13 μg/mg Ehrlich's cell; in assay [4] (Initial) it was 0 μg/mg Ehrlich's cell.
